The test system of assay [1] is pylorous ligated rats. Kind of assay: Antisecretory activity in the pylorous ligated rat model. The class given is in vivo, male Sprague-Dawley rats. Conditions: Rattus norvegicus, 4 h; for inhibition in vivo at 12.5 mg/kg: oral dose 12.5 mg/kg; for inhibition in vivo at 25 mg/kg: oral dose 25 mg/kg; for inhibition in vivo at 50 mg/kg: oral dose 50 mg/kg; for inhibition in vivo at 100 mg/kg: oral dose 100 mg/kg. The procedure: To determine the antisecretory activity of the present compounds, the compounds were tested for such activity in pylorous ligated rats. In this test, male Sprague-Dawley rats weighing 170-190 g. were fasted for 24 hours. Water was allowed ad libitum. All groups were comprised of six rats. […] Water was withheld after drug administration. Ligation of the pyrloric sphincter was performed under ether anesthesia, and four hours after ligation the animals were sacrificed with CO2. The stomach was dissected out and the contents were expelled into a graduated centrifuge tube. The samples were centrifuged and the volume, less debris, was measured. Sample aliquots were titrated with 0.05 N NaOH to determine acid concentration. Pepsin activity was determined on an auto analyzer using hemoglobin as the substrate by the method of Anson. Group means for volume, acid and pepsin concentrations, and pepsin outputs were compared for statistically significant differences from control means by Student's t-test.

Assay [2] has as its system pentagastrin stimulated fistula dog. Kind of assay: Antisecretory activity in the pentagastrin stimulated fistula dog. The note with it: dose 10 mg/kg; pentagastrin 10 μg/kg s.c.; 2 hours. The class given is in vivo, female beagle dogs. The procedure:
In addition to the test described in Example XXXVI, some of the present compounds were tested in dogs.
In this test, female beagle dogs weighing 5.5-7.5 kg. were surgically provided with gastric fistulas at the ventral wall of the stomach near the greater curvature and just proximal to the antrum. The animals were allowed to recover for three to four weeks before handling and training were begun, and experiments were started six to eight weeks after surgery. The individually housed dogs were fasted for 20-24 hours before use. Water was allowed ad lib. Treatment selection was determined by a randomized schedule which included control groups given vehicle (0.5% Methocel® solution) only. During the test period each dog was secured in a standing position with one collar around the neck and another around the lower abdomen. Before drug administration, the cannula plug of the gastric fistula was removed and the pH of the gastric juice was checked. Animals with acidic gastric juice (pH 4.0 or less) were replaced with alternate dogs. Then the drug was administered intragastrically […] through a special gastric cannula instillation plug, 30 minutes prior to subcutaneous administration of a gastric stimulant (pentagastrin, 10 μg/kg).
For each dog, collection of gastric juice was begun immediately after administration of the gastric stimulant and continued for two hours. The volumes of collected gastric juices were measured. The acid concentration and pepsin activity were determined for all samples by automated procedures. For the dog data, as recorded in Table 2, below, group means for volume (ml), acid concentration (acidity, mEq/l), pepsin concentration (mg/ml), acid output (mEq/2 hr), and pepsin output (mg/2 hr) were compared with the respective control means using Student's t-test. The results were also expressed as percent inhibition of the respective individual mean control values.
Group means for volume, acid and pepsin concentrations, acid and pepsin outputs were compared for statistically significant differences from control means by Student's t-test.

Setting [3] is: read-out: Percent inhibition of acid output.
[4] abbreviates: read-out: Percent inhibition of acidity.
[5] abbreviates: read-out: Percent inhibition of volume.
Where [6] appears, read: negative sign means stimulated, read-out: Percent inhibition of pepsin.
Where [7] appears, read: negative sign means stimulated, read-out: Percent inhibition of pepsin output.

Where a name gives a salt, the structure may show the parent alone. Read-outs that look alike come from different tables or passages of the source.

Consider `CCCCCC(C)C(C)c1cc(O)c(C2=CCN(Cc3ccccc3)CC2)c(O)c1.Cl` (centres unmarked) [Example XIV, 2-(N-Benzyl-1,2,3,6-tetrahydro-4-pyridyl)-5-(1,2-dimethylheptyl) resorcinol hydrochloride], for which, in assay [1] (setting [3]), the inhibition in vivo at 12.5 mg/kg is -17.3%, the inhibition in vivo at 25 mg/kg amounted to 12.5%, the inhibition in vivo at 50 mg/kg stood at 57.6% and the inhibition in vivo at 100 mg/kg was found to be 79.7%. Moreover, in assay [1] (setting [4]), the inhibition in vivo at 12.5 mg/kg is -0.5%, the inhibition in vivo at 25 mg/kg is 9.2%, the inhibition in vivo at 50 mg/kg came out at 24.7% and the inhibition in vivo at 100 mg/kg amounted to 31.6%. Moreover, in assay [1] (setting [5]), the inhibition in vivo at 12.5 mg/kg is -5.9%, the inhibition in vivo at 25 mg/kg was determined as 4.9%, the inhibition in vivo at 50 mg/kg amounted to 48.9% and the inhibition in vivo at 100 mg/kg is 72.1%. In assay [1] (setting [6]), the inhibition in vivo at 50 mg/kg turned out to be 12.7%. The inhibition in vivo at 50 mg/kg in assay [1] (setting [7]) came to 52.4%. Further, in assay [2], the “% Inhibition of acid output” value was -10.4%, the “% Inhibition of acidity” value was found to be 1.2%, the “% Inhibition of pepsin” value is reported as -10.0% and the “% Inhibition of pepsin output” value is -23.1%. The “% Inhibition of volume” value in assay [2] is -12.3%.

As for `CCCCCC(C)C(C)c1cc(O)c(C2CCNCC2)c(O)c1` (centres unmarked) [Example XVI, 2-(4-Piperidino)-5-(1,2-dimethylheptyl) resorcinol hydrochloride], the inhibition in vivo at 50 mg/kg was 45.1% in assay [1] (setting [6]); 40.3% in assay [1] (setting [7]); 46.6% in assay [1] (setting [3]); 50.7% in assay [1] (setting [4]); -8.6% in assay [1] (setting [5]). Besides, the “% Inhibition of acid output” value in assay [2] was found to be 20.3%. For the same compound, the “% Inhibition of acidity” value in assay [2] is given as 20.9%. In addition, in assay [2], the “% Inhibition of pepsin” value turned out to be 39.7%. Besides, the “% Inhibition of pepsin output” value in assay [2] is listed as 39.1%. Also, the “% Inhibition of volume” value in assay [2] is listed as -0.2%.

Values taken from patent US4180669A, “2-(N-phenethyl-4-piperidino)-5-pentyl resorcinol” (Abbott Laboratories, priority 1978, dated 1979).
